Laboratory results published in patent publication US20050014744A1, “Benzothiazine and benzothiadiazine compounds” (priority 2001, published 2005).
Like-named read-outs stand apart in the source and are kept apart here.

System: AMPA receptors
Experiment: Excitatory fluxes induced by AMPA in Xenopus oocytes (2-electrode voltage-clamp)
Type: cell-based
Details: Xenopus oocytes injected with rat cerebral cortex poly-(A+) mRNA, AMPA 10 μM, 20 to 24° C., OR2 medium
Protocol: Study of the Excitatory Fluxes Induced By AMPA in Xenopus oocytes
mRNAs are prepared from cerebral cortex of male Wistar rat by the guanidinium thiocyanate/phenol/chloroform method. The poly-(A^+) mRNAs are isolated by chromatography on oligo-dT cellulose and injected in an amount of 50 ng per oocyte. The oocytes are left to incubate for 2 to 3 days at 18° C. to allow expression of the receptors and are then stored at from 8 to 10° C.
Electrophysiological recording is carried out in a Plexiglass® chamber at from 20 to 24° C. in OR2 medium (J. Exp. Zool., 1973, 184, 321-334) by the 2-electrode “voltage-clamp” method, a 3rd electrode being placed in the bath to serve as reference.
All the compounds are administered via the incubation medium and the electric current is measured at the end of the period of administration. AMPA is used at a concentration of 10 μM. For each compound studied, the concentration that doubles (EC2X) or quintuples (EC5X) the intensity of the current induced by AMPA alone (5 to 50 nA) is determined.

Work on O=C(Oc1ccc2c(c1)S(=O)(=O)NCC2)c1ccccc1 [Example 2, 1,1-Dioxido-3,4-dihydro-2H-1,2-benzothiazin-7-yl Benzoate] yielded a Concentration that doubles (EC2X) or quintuples (EC5X) the AMPA-induced current (read-out: EC2X (concentration that doubles the intensity of the current induced by AMPA alone)) of 11.9 µM and a Concentration that doubles (EC2X) or quintuples (EC5X) the AMPA-induced current (read-out: EC5X (concentration that quintuples the intensity of the current induced by AMPA alone)) of 49.3 µM.
